Laboratory results: patent US10967047B2, “Mitochondrial antiviral-signaling (MAVS) polypeptides and detection and use thereof” (University of Vermont and State Agricultural College, priority 2016, dated 2021)

How the values were obtained:
MEFs [1] = assay: IFN-I and IL-6 cytokine secretion by ELISA in MEF culture supernatants; format: cell-based, mouse; conditions: MAVS-WT MEFs
Description: ELISA was used to measure cytokine concentration in supernatant from cultured MEFs and BMDCs, and in sera of SLE patients and healthy control subjects. For assays, samples were centrifuged and IFN-β and IL-6 levels were measured in triplicate using murine or human ELISA kits according to the manufacturer's instructions. (PBL Biosciences). The fold change in IFN-I or IL-6 cells was calculated by directly comparing mock versus virus or chemical inducer of ROS.

MAVS [2] = assay: MAVS oligomerization in MEFs (semi-denaturing gel electrophoresis, immunoblot, densitometry); format: cell-based, mouse
Description: 5′ triphosphate double-stranded RNA (5′-ppp-dsRNA), a synthetic ligand for RIG-I, was purchased from InVivoGen and used at a concentration of 1 μg/mL. Mitochondria-targeted antioxidant MitoQ and the mitochondria-targeted superoxide generator MitoPQ, were gifts of M. Murphy (G. F. Kelso et al., (2001) The Journal of biological chemistry 276, 4588-4596). The control reagent TPP was purchased from Sigma. Reagents were added to cells at concentrations as indicated. GOx was purchased from Sigma and added to cultured cells at a final concentration of 0.1 U/mL. Iodoacetamide was from Thermo Fisher, and used at a final concentration of 100 μM.
Cultured MEFs or human PBMCs were lysed in a sample buffer containing 2% SDS and insoluble cell fragments were removed by centrifugation. Plasma samples derived from SLE patients were collected and stored at −20° C. until gel electrophoresis. BCA protein assay (Thermo Scientific) was used to determine protein concentrations in all samples were resolved with SDS-PAGE under denaturing conditions. Gels were transferred to PVDF membranes using a Trans-Blot Turbo Transfer System (BioRad).
(§1) SDD-AGE was performed according to a published protocol with minor modifications (Alberti et al., (2009) Cell 137, 146-158). In brief, mitochondria were resuspended in sample buffer (0.5×TBE, 10% glycerol, 2% SDS, and 0.0025% bromophenol blue) and loaded onto a vertical 1.5% agarose gel. After electrophoresis in the running buffer (1×TBE and 0.1% SDS) for 35 min with a constant voltage of 75 V at 4° C., proteins were transferred to PVDF membranes using a Trans-Blot Turbo Transfer System (BioRad) for immunoblotting.
PVDF membranes were blocked in 5% solution of nonfat powdered milk in Tris-buffered saline. Antibodies used were specific for MAVS and Actin (Santa Cruz); RIPK1 and TRAF2 (BD Biosciences); TANK, TRADD, RIG-I, and GAPDH (Cell Signaling); MDAS and COX4 (Abcam), Alexa 488 (Life Technologies), and IRF3 (Thermo Fisher), respectively. Immunoreactive proteins were visualized using HRP-labeled conjugates (Jackson Immuno Research) and developed using Clarity Western ECL substrate (Biorad). Chemiluminescence was detected and recorded using a Biorad Chemidoc instrument. Densitometric measurements were performed in Image Lab image acquisition and analysis software (Biorad).

MEFs [3] = assay: Cell death by FACS using live-dead stain; format: cell-based, mouse; conditions: MitoPQ at the doses used (1 to 10 nM) (FIG. 2I)
MEFs [4] = assay: ROS generation by FACS using DHC in MEFs; format: cell-based, mouse
Description: (§2) ROS generation was measured using oxidized, green-fluorescent dihydrocalcein acetoxymethylester (DHC-AM) (Life Technologies) and flow cytometry. Single-cell suspensions of MEFs were prepared and ROS was assessed with 5 μM DHC-AM staining in culture medium for 30 minutes (A. Rohnstock et al., (2007) Toxicol in Vitro 21, 1552-1562). 25 nM of cationic cell permeant dye tetramethylrhodamine ethylester (TMRE; Life Technologies) (R. C. Scaduto, Jr. et al., (1999), Biophysical journal 76, 469-477) were used to measure ΔΨm. Additionally, MitoSox Red and MitoTracker Deep Red (Life Technologies) were used to measure mitochondrial ROS and mitochondrial mass, respectively. Flow cytometry was carried out on an LSRII (BD Biosciences), and FlowJo software (Tree Star) was used for analysis.

MEFs [5] = assay: Mitochondrial transmembrane potential (ΔΨm) by FACS using TMRE in MEFs; format: cell-based, mouse
Description: as §2

MAVS [6] = assay: MAVS oligomerization in human PBMC and plasma (semi-denaturing agarose gel electrophoresis); format: cell-based
Description: MAVS-deficient and matching WT MEFs, gift of Z. J. Chen (Z. J. Chen et al. (2005) Cell 122, 669-682), were maintained in Dulbecco's modified Eagle's medium (DMEM) (Hyclone), supplemented with 10% heat-inactivated fetal calf serum (FCS) (Hyclone), 100 mM L-glutamine (Cellgro Mediatech), and 10,000 units/mL penicillin/10 mg/mL streptomycin sulfate (Life Technologies). C57BL6 or B6; 129-Mavstm1Zjc/J mice (The Jackson Laboratory, Bar Harbor, Me.) were maintained at the University of Vermont under a protocol approved by the Institutional Animal Care and Use Committee. Murine BMDCs were prepared as described by Inaba et al. (K. Inaba et al., (1992) Journal of Experimental Medicine 176, 1693-1702). In brief, cells derived from femur bone marrow were cultured at a density of 5×10^5/mL in 10-cm plates in RPMI 1640 (HyClone), supplemented with 5% heat-inactivated FCS, 100 mmol L-glutamine, 100 mmol sodium pyruvate, 10,000 units/mL penicillin/10 mg/mL streptomycin sulfate, 5×10^−5 mol 2-mercaptoethanol (Sigma, St. Louis, Mo.), and 10 μg/mL GM-CSF (Life Technologies). Human subjects were enrolled under a protocol approved by the University of Vermont Institutional Review Board. Samples from 17 SLE patients fulfilling the American College of Rheumatology diagnostic criteria were studied (E. M. Tan et al., (1982) Arthritis and Rheumatism 25, 1271-1277). 16 out of 17 patients were female, and the age of study participants was 47±3. The disease activity was assessed by the SLE disease activity index (SLEDAI) scores, ranging from 0 to 10 (C. Bombardier et al., (1992) Arthritis and Rheumatism 35, 630-640). Upon informed consent, primary human PBMCs were obtained from heparinized whole-blood samples from SLE patients. Control PBMCs were generated from age-, sex-, and ethnicity-matched healthy subjects. PBMCs were isolated using standard Ficoll gradient centrifugation as previously described (R. Mallone et al., (2011) Clin. and Exp. Immunol. 163, 33-49). Cells were either used immediately to prepare lysates for immunoblotting or cultured at a density of 5×10^5/mL in a 12-well culture plate with RPMI 1640 (HyClone), supplemented with 5% heat-inactivated FCS, 100 mmol L-glutamine, 100 mmol sodium pyruvate, and 10,000 units/mL penicillin/10 mg/mL streptomycin sulfate. Enriched monocytes from PBMCs were used to prepare hDCs using negative magnetic bead selection (Miltenyi), and were subsequently cultivated for 6 d in 10 μg/mL GM-CSF and 500 U/mL IL-4. All cells were maintained in a humidified chamber at 37° C. and 5% CO2.
as §1
PVDF membranes were blocked in 5% solution of nonfat powdered milk in Tris-buffered saline. Antibodies used were specific for MAVS and Actin (Santa Cruz); RIPK1 and TRAF2 (BD Biosciences); TANK, TRADD, RIG-I, and GAPDH (Cell Signaling); MDAS and COX4 (Abcam), Alexa 488 (Life Technologies), and IRF3 (Thermo Fisher), respectively. […] Chemiluminescence was detected and recorded using a Biorad Chemidoc instrument. […]

MAVS [7] = assay: MAVS expression and oligomerization in the mitochondrial fraction of BMDCs treated with free dye; format: cell-based, mouse; conditions: increasing concentrations of free Alx488 dye (FIG. 7G)
MAVS oligomers = biological target: T1, MAVS oligomers (Homo sapiens, UniProt Q7Z434); assay: Membrane lipid-strip blot: interaction of lipids with MAVS oligomers isolated from SLE patients; format: binding; conditions: lipid strips exposed to 1 μg/ml MAVS oligomer from SLE patients (FIG. 15B)
T1 construct: The strips were exposed to 1 μg/ml of MAVS oligomer isolated from SLE patients; from tissue; host or cells: SLE patient material, immunoprecipitated with anti-MAVS antibody on protein G magnetic beads
T1 sequence (Q7Z434 whole entry): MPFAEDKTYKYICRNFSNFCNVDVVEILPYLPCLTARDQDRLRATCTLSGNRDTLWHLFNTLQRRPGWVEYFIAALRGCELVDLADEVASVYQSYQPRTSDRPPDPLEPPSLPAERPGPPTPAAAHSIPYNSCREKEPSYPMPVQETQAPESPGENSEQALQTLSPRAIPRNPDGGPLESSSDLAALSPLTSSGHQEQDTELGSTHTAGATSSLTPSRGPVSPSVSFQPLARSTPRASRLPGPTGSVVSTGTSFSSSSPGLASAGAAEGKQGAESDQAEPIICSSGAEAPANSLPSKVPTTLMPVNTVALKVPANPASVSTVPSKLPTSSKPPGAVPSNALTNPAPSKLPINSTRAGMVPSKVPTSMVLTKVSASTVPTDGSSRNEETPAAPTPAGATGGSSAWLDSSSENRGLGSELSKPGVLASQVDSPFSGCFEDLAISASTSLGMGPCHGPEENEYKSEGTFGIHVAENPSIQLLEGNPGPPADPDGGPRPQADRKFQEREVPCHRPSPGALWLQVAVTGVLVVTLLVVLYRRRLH
Description: To assess MAVS oligomer interaction a plate coated with anti-phospholipid antibody was prepared and was later was saturated with purified CL. The same plate was exposed to purified and Alx488 labeled MAVS oligomers from mock or GOx treated healthy controls, or from SLE patients as previously published [Szeto, H. H., Br J Pharmacol, 2014. 171(8): p. 2029-50]. Following washing, fluorescence of captured MAVS oligomers was measured. As a control we used recombinant, purified and Alx488 labeled MAVS monomers. Results are shown in FIG. 15A with data shown as mean±SEM, with results representative of two experiments. […] Tests were performed on membrane lipid-strips (Echelon Biosciences). The strips were exposed to 1 μg/ml of MAVS oligomer isolated from SLE patients. The strips were washed with mild detergent and treated with phospholipase A2 (PLA2).

[8] = Total thiol concentration of PBMC and plasma homogenates; design: species or system human
Drp1 = assay: Phosphorylated Drp1 (Drp1 616p) at purified mitochondria, densitometry normalized to Cox IV; format: cell-based; conditions: 5′-ppp-RNA 1 μg/ml or GOx (FIG. 14A-B)
Description: To activate MAVS commercially available 5′-ppp-RNA was used at a concentration of 1 μg/ml, which activates RIG-I helicase. As an alternative GOx was used as previously described [Szeto, H. H., Br J Pharmacol, 2014. 171(8): p. 2029-50]. Mitochondria were purified by anti-Tom22 magnetic beads as previously described [Perl, A., et al., Int Rev Immunol, 2004. 23(3-4): p. 293-313]. Changes in the level of Drp1^616p at mitochondria were determined by densitometry, which was normalized to the level of Cox IV (FIG. 14A-B).

MEFs [9] = assay: Oxygen consumption rate (OCR), Seahorse XF-24 extracellular flux analyzer, MEFs; format: cell-based, mouse; conditions: MAVS-WT MEFs (FIG. 1I, J)
Description: Real-time analysis of OCR and ECAR was performed with an XF-24 Extracellular Flux Analyzer (Seahorse Bioscience). Metabolic profiles were measured under basal conditions in non-buffered DMEM (Sigma) containing 25 mM glucose, 2 mM L glutamine, and 1 mM sodium pyruvate, in response to 1 μM oligomycin, 0.5 μM FCCP, and 1 μM rotenone/1 μM antimycin A (M. B. de Moura et al., (2014) Methods in molecular biology 1105, 589-602). Total ATP was measured with the ATP Lite Kit (Perkin Elmer), and the ATP/ADP ratio was determined using the bioluminescence ADP/ATP Ratio Assay Kit from Sigma.

Compound: C[n+]1ccc(-c2cc[n+](CCCCCCCCCC[P+](c3ccccc3)(c3ccccc3)c3ccccc3)cc2)cc1.[I-].[I-].[I-] [MitoPQ, MitoParaquat]
- IFN-I secretion induced by the substance (MEFs [1]; not observed in MAVS-KO (FIG. 2E, 2J)): significant increase
- IL-6 secretion induced by the substance (MEFs [1]; not observed in MAVS-KO (FIG. 2F, 2K)): significant increase
- induction of MAVS oligomerization without viral infection (MAVS [2]; MEFs, substance alone (MitoPQ 1 to 10 nM, FIG. 2H; GOx, FIG. 2A)): MAVS oligomerization
- cell death (MEFs [3]): without causing significant cell death
- superoxide within mitochondria / ROS (MEFs [4]; MEFs, MitoPQ 1 to 10 nM (FIG. 2G)): increased amount of superoxide within mitochondria

Compound: OCCS [β-Me, β-mercaptoethanol]
- reversal of GOx-induced MAVS oligomerization (MAVS [2]; cell media supplemented with β-Me (FIG. 2A)): reversible
- reversal of SINV-induced MAVS oligomerization (MAVS [2]; cell media supplemented with β-Me, SINV infection (FIG. 2A)): only a portion of the MAVS oligomers were reducible
- mitochondrial hyperpolarization in GOx-treated cells (MEFs [5]; media supplemented with β-Me, GOx (FIG. 2D)): prevented mitochondrial hyperpolarization
- GOx-induced MAVS oligomerization in PBMCs after pretreatment (MAVS [6]; healthy-donor PBMCs pretreated with MitoQ or grown in presence of β-Me, then GOx (FIG. 4A)): MAVS oligomerization did not occur

Compound: N=c1ccc2c(-c3ccc(C(=O)O)cc3C(=O)O)c3ccc(N)c(S(=O)(=O)O)c3oc-2c1S(=O)(=O)O [Alx488, Alexa Fluor 488]
- MAVS expression or oligomerization with free fluorophore (MAVS [7]): did not lead to increased MAVS expression or oligomerization

Compound: cardiolipin [CL]
- interaction with MAVS oligomers (MAVS oligomers): significant interaction

Compound: NC(=O)CI [iodoacetamide]
- reduction of total thiol concentration, PBMCs ([8]; PBMC homogenates (FIG. 9)): 80%
- reduction of total thiol concentration, plasma ([8]; plasma homogenates (FIG. 9)): 94%
- MAVS oligomers with thiol blocking during homogenization (MAVS [6]; cells homogenized in buffer with 100 μM iodoacetamide after GOx or SINV (FIG. 9)): did not result in a decrease in MAVS oligomers
- detection of MAVS oligomers in SLE cells or plasma with thiol blocking (MAVS [6]; iodoacetamide added to SLE PBMC and plasma samples (FIG. 9)): did not decrease the detection of MAVS oligomers

Compound: 5′ triphosphate double-stranded RNA [5′-ppp-RNA]
- level of phosphorylated Drp1 at mitochondria after MAVS activation (Drp1): lower levels of phosphorylated Drp1 at mitochondria
- basal OCR versus mock-treated cells (MEFs [9]): significantly lower basal OCR
- ΔΨm induced by the substance (MEFs [5]; MAVS-WT MEFs, not observed in MAVS-KO (FIG. 1B, 2D)): increased
- ROS after transfection (MEFs [4]; MAVS-WT MEFs, initial 12 h, 1 μg 5′-ppp-RNA (FIG. 1A)): increased

Compound: CCCCCCCCCC[P+](c1ccccc1)(c1ccccc1)c1ccccc1 [dTPP]
- MAVS oligomerization after pretreatment (MAVS [2]; MEFs pretreated (100 μM) before GOx or SINV (FIG. 3A)): did not demonstrate reversal of MAVS oligomerization
